Structures can show the parent of a compound that is named as a salt.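 In this assay, cells in 96-well plates receive the compound at five concentrations for 48 hours. Endpoints are linearly interpolated between the surrounding concentrations. At the GI50, growth is halved.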 Active and inactive are the calls of the source. No stated cut-off is given here; in the data, active = GI50 up to about 1.1 µM and inactive = higher.
Columns and labels:
Assay in all cases: DTP human tumour cell line panel, 48 h
OVCAR-3 = system: OVCAR-3
K562 = system: K562
NCI-H23 = system: NCI-H23
TK-10 = system: TK-10
SNB-75 = system: SNB-75
HCC 2998 = system: HCC 2998
UO-31 = system: UO-31
RXF 393 = system: RXF 393
HOP-62 = system: HOP-62
SK-MEL-2 = system: SK-MEL-2
CAKI-1 = system: CAKI-1
SF-295 = system: SF-295
MOLT-4 = system: MOLT-4
LOX IMVI = system: LOX IMVI
ACHN = system: ACHN
HCT-116 = system: HCT-116
OVCAR-5 = system: OVCAR-5
BT-549 = system: BT-549
KM12 = system: KM12

COC(=O)c1c2c(cc3c1CC1(Cc4cc5c(cc4C1)CCC5)C3)CCC2
GI50 (OVCAR-3): > 100 µM (inactive)
GI50 (K562): > 100 µM (inactive)
GI50 (NCI-H23): > 100 µM (inactive)
GI50 (TK-10): > 100 µM (inactive)
GI50 (SNB-75): > 100 µM (inactive)
GI50 (HCC 2998): > 100 µM (inactive)
GI50 (UO-31): > 100 µM (inactive)
GI50 (RXF 393): > 100 µM (inactive)
GI50 (HOP-62): > 100 µM (inactive)
GI50 (SK-MEL-2): > 100 µM (inactive)
GI50 (CAKI-1): > 100 µM (inactive)
GI50 (SF-295): > 100 µM (inactive)
GI50 (MOLT-4): > 100 µM (inactive)
GI50 (LOX IMVI): > 100 µM (inactive)
GI50 (ACHN): > 100 µM (inactive)
GI50 (HCT-116): > 100 µM (inactive)
GI50 (OVCAR-5): > 100 µM (inactive)

N/C(=N\OC(=O)NC(Cl)=C(Cl)Cl)c1cc(C(F)(F)F)cc(C(F)(F)F)c1
GI50 (OVCAR-3): 14.8 µM (inactive)
GI50 (NCI-H23): 34.9 µM (inactive)
GI50 (TK-10): 16.5 µM (inactive)
GI50 (HCC 2998): 12.5 µM (inactive)
GI50 (UO-31): 18 µM (inactive)
GI50 (BT-549): 21.8 µM (inactive)
GI50 (HOP-62): 17.9 µM (inactive)
GI50 (CAKI-1): 16.7 µM (inactive)
GI50 (SF-295): 17.5 µM (inactive)
GI50 (MOLT-4): 9.48 µM (inactive)
GI50 (LOX IMVI): 16.3 µM (inactive)
GI50 (ACHN): 14 µM (inactive)
GI50 (HCT-116): 18.6 µM (inactive)
GI50 (OVCAR-5): 21.1 µM (inactive)
GI50 (KM12): 15.8 µM (inactive)

CC(=O)c1c2c(cc3c1CC1(Cc4cc5c(cc4C1)CCCC5)C3)CCCC2
GI50 (OVCAR-3): 27.2 µM (inactive)
GI50 (K562): 9.66 µM (inactive)
GI50 (NCI-H23): 68.5 µM (inactive)
GI50 (TK-10): > 100 µM (inactive)
GI50 (SNB-75): < 0.01 µM (active)
GI50 (HCC 2998): > 100 µM (inactive)
GI50 (UO-31): 0.438 µM (active)
GI50 (RXF 393): > 100 µM (inactive)
GI50 (HOP-62): > 100 µM (inactive)
GI50 (SK-MEL-2): 18.8 µM (inactive)
GI50 (SF-295): 37.2 µM (inactive)
GI50 (MOLT-4): 12.1 µM (inactive)
GI50 (LOX IMVI): 55.1 µM (inactive)
GI50 (ACHN): 6.49 µM (inactive)
GI50 (HCT-116): > 100 µM (inactive)
GI50 (OVCAR-5): > 100 µM (inactive)
GI50 (KM12): > 100 µM (inactive)

C=CC(=O)Nc1ccc(NC(=O)C=C)c2c1C(=O)c1ccccc1C2=O
GI50 (OVCAR-3): 35.6 µM (inactive)
GI50 (K562): 15.7 µM (inactive)
GI50 (NCI-H23): 48.6 µM (inactive)
GI50 (TK-10): 23.2 µM (inactive)
GI50 (HCC 2998): > 100 µM (inactive)
GI50 (UO-31): 46.1 µM (inactive)
GI50 (BT-549): 29.9 µM (inactive)
GI50 (HOP-62): > 100 µM (inactive)
GI50 (SK-MEL-2): 69.3 µM (inactive)
GI50 (SF-295): 10.8 µM (inactive)
GI50 (MOLT-4): 21.6 µM (inactive)
GI50 (LOX IMVI): 5.07 µM (inactive)
GI50 (ACHN): 61.7 µM (inactive)
GI50 (HCT-116): 62.8 µM (inactive)
GI50 (OVCAR-5): > 100 µM (inactive)
GI50 (KM12): 12 µM (inactive)

[N-]=[N+]=Nc1c(Cc2ccccc2)c(Cl)nc2ccccc12
GI50 (OVCAR-3): 12.5 µM (inactive)
GI50 (K562): 23.9 µM (inactive)
GI50 (NCI-H23): 28.8 µM (inactive)
GI50 (TK-10): 23.8 µM (inactive)
GI50 (SNB-75): 22.6 µM (inactive)
GI50 (HCC 2998): 49.4 µM (inactive)
GI50 (UO-31): 28.6 µM (inactive)
GI50 (RXF 393): 15.7 µM (inactive)
GI50 (HOP-62): 22.4 µM (inactive)
GI50 (SK-MEL-2): 16.6 µM (inactive)
GI50 (CAKI-1): 21.4 µM (inactive)
GI50 (SF-295): 22.2 µM (inactive)
GI50 (MOLT-4): 28.8 µM (inactive)
GI50 (LOX IMVI): 18.4 µM (inactive)
GI50 (ACHN): 25.1 µM (inactive)
GI50 (HCT-116): 17.5 µM (inactive)
GI50 (OVCAR-5): 31 µM (inactive)
GI50 (KM12): 16.3 µM (inactive)

O=C(O)C1C2C=CC(C2)C1c1ccccc1 (stereo not drawn)
GI50 (OVCAR-3): > 100 µM (inactive)
GI50 (K562): > 100 µM (inactive)
GI50 (NCI-H23): > 100 µM (inactive)
GI50 (TK-10): > 100 µM (inactive)
GI50 (SNB-75): > 100 µM (inactive)
GI50 (HCC 2998): > 100 µM (inactive)
GI50 (UO-31): > 100 µM (inactive)
GI50 (RXF 393): > 100 µM (inactive)
GI50 (HOP-62): > 100 µM (inactive)
GI50 (SK-MEL-2): 31.6 µM (inactive)
GI50 (CAKI-1): > 100 µM (inactive)
GI50 (SF-295): > 100 µM (inactive)
GI50 (MOLT-4): > 100 µM (inactive)
GI50 (LOX IMVI): > 100 µM (inactive)
GI50 (ACHN): > 100 µM (inactive)
GI50 (HCT-116): > 100 µM (inactive)
GI50 (OVCAR-5): > 100 µM (inactive)
GI50 (KM12): > 100 µM (inactive)

COC1(OC)N=C(N)C2(C#N)C(C)CC(=O)N(N(C)C)C12C#N (stereo not drawn)
GI50 (K562): > 100 µM (inactive)
GI50 (NCI-H23): > 100 µM (inactive)
GI50 (TK-10): > 100 µM (inactive)
GI50 (SNB-75): 40.5 µM (inactive)
GI50 (HCC 2998): > 100 µM (inactive)
GI50 (UO-31): > 100 µM (inactive)
GI50 (RXF 393): > 100 µM (inactive)
GI50 (HOP-62): > 100 µM (inactive)
GI50 (SK-MEL-2): > 100 µM (inactive)
GI50 (CAKI-1): > 100 µM (inactive)
GI50 (SF-295): > 100 µM (inactive)
GI50 (MOLT-4): > 100 µM (inactive)
GI50 (LOX IMVI): > 100 µM (inactive)
GI50 (ACHN): > 100 µM (inactive)
GI50 (HCT-116): > 100 µM (inactive)
GI50 (OVCAR-5): > 100 µM (inactive)
GI50 (KM12): > 100 µM (inactive)

COc1cc2c(c(OC)c1OC)-c1ccc(OC)c(=O)cc1C(NC(=O)CCCCCNc1ccc(N=[N+]=[N-])cc1[N+](=O)[O-])CC2 (stereo not drawn)
GI50 (OVCAR-3): < 0.01 µM (active)
GI50 (K562): < 0.01 µM (active)
GI50 (NCI-H23): < 0.01 µM (active)
GI50 (TK-10): 0.0426 µM (active)
GI50 (SNB-75): 0.246 µM (active)
GI50 (HCC 2998): < 0.01 µM (active)
GI50 (UO-31): 1.47 µM (inactive)
GI50 (RXF 393): < 0.01 µM (active)
GI50 (HOP-62): < 0.01 µM (active)
GI50 (SK-MEL-2): < 0.01 µM (active)
GI50 (CAKI-1): 0.299 µM (active)
GI50 (SF-295): < 0.0118 µM (active)
GI50 (MOLT-4): < 0.01 µM (active)
GI50 (LOX IMVI): < 0.01 µM (active)
GI50 (ACHN): 0.0271 µM (active)
GI50 (HCT-116): < 0.01 µM (active)
GI50 (OVCAR-5): < 0.01 µM (active)
GI50 (KM12): < 0.01 µM (active)

Cc1ccc(S(=O)(=O)N/N=c2/sc3ccccc3n2C)cc1
GI50 (K562): > 100 µM (inactive)
GI50 (NCI-H23): > 100 µM (inactive)
GI50 (TK-10): > 100 µM (inactive)
GI50 (SNB-75): > 100 µM (inactive)
GI50 (HCC 2998): > 100 µM (inactive)
GI50 (UO-31): > 100 µM (inactive)
GI50 (RXF 393): > 100 µM (inactive)
GI50 (HOP-62): > 100 µM (inactive)
GI50 (SK-MEL-2): > 100 µM (inactive)
GI50 (CAKI-1): > 100 µM (inactive)
GI50 (SF-295): > 100 µM (inactive)
GI50 (MOLT-4): > 100 µM (inactive)
GI50 (LOX IMVI): > 100 µM (inactive)
GI50 (ACHN): > 100 µM (inactive)
GI50 (HCT-116): > 100 µM (inactive)
GI50 (OVCAR-5): > 100 µM (inactive)
GI50 (KM12): > 100 µM (inactive)

COc1ccc(C(OCC2OC(n3ccc(NC(=O)c4ccccc4)nc3=O)C(O)C2O)(c2ccccc2)c2ccccc2)cc1 (stereo not drawn)
GI50 (OVCAR-3): 1.69 µM (inactive)
GI50 (K562): 2.38 µM (inactive)
GI50 (NCI-H23): 1.32 µM (inactive)
GI50 (SNB-75): 9.55 µM (inactive)
GI50 (HCC 2998): 3.4 µM (inactive)
GI50 (UO-31): 3.42 µM (inactive)
GI50 (RXF 393): 2.97 µM (inactive)
GI50 (HOP-62): 2.34 µM (inactive)
GI50 (SK-MEL-2): 3.33 µM (inactive)
GI50 (CAKI-1): 2.93 µM (inactive)
GI50 (SF-295): 1.95 µM (inactive)
GI50 (MOLT-4): 2.1 µM (inactive)
GI50 (ACHN): 2.9 µM (inactive)
GI50 (HCT-116): 1.75 µM (inactive)
GI50 (OVCAR-5): 2 µM (inactive)
GI50 (KM12): 21.1 µM (inactive)

CCN1CCCC(Nc2cc(C)nc(NC(=N)Nc3ccc(Cl)c(Cl)c3)n2)C1 (stereo not drawn)
GI50 (OVCAR-3): 1.67 µM (inactive)
GI50 (K562): 0.217 µM (active)
GI50 (NCI-H23): 1.77 µM (inactive)
GI50 (TK-10): 1.69 µM (inactive)
GI50 (SNB-75): 1.25 µM (inactive)
GI50 (HCC 2998): 0.551 µM (active)
GI50 (UO-31): 0.982 µM (active)
GI50 (BT-549): 1.64 µM (inactive)
GI50 (HOP-62): 1.43 µM (inactive)
GI50 (SK-MEL-2): 2.04 µM (inactive)
GI50 (CAKI-1): 1.56 µM (inactive)
GI50 (SF-295): 1.07 µM (active)
GI50 (MOLT-4): 0.658 µM (active)
GI50 (ACHN): 2.32 µM (inactive)
GI50 (HCT-116): 1.26 µM (inactive)
GI50 (OVCAR-5): 2.74 µM (inactive)
GI50 (KM12): 1.85 µM (inactive)

CN[C@@H](C)[C@@H](O)c1ccccc1 [PSEUDOEPHEDRINE HYDROCHLORIDE]
GI50 (OVCAR-3): > 10 µM (inactive)
GI50 (K562): > 100 µM (inactive)
GI50 (NCI-H23): > 100 µM (inactive)
GI50 (TK-10): > 100 µM (inactive)
GI50 (SNB-75): > 100 µM (inactive)
GI50 (HCC 2998): > 100 µM (inactive)
GI50 (UO-31): > 100 µM (inactive)
GI50 (HOP-62): > 100 µM (inactive)
GI50 (SK-MEL-2): > 100 µM (inactive)
GI50 (CAKI-1): > 100 µM (inactive)
GI50 (SF-295): > 100 µM (inactive)
GI50 (MOLT-4): > 100 µM (inactive)
GI50 (LOX IMVI): > 100 µM (inactive)
GI50 (ACHN): > 100 µM (inactive)
GI50 (HCT-116): > 100 µM (inactive)
GI50 (OVCAR-5): > 100 µM (inactive)
GI50 (KM12): > 100 µM (inactive)

Reference: ChEMBL document CHEMBL1201862, “PubChem BioAssay data set” (2004)
